# How the values were obtained:
# Histamine H3 receptor [1] = biological target: T1, Histamine H3 receptor (Homo sapiens, UniProt Q9Y5N1); experiment: Displacement of [125I]iodoproxyfan from human histamine H3 receptor expressed in CHO-K1 cells
# Homo sapiens = species on record: Homo sapiens; experiment: Selectivity, ratio of Ki for human histaminee H4 receptor to Ki for human histamine H3 receptor
# Histamine H4 receptor [2] = biological target: T2, Histamine H4 receptor (Homo sapiens, UniProt Q9H3N8); experiment: Displacement of [3H]histamine from human histamine H4 receptor expressed in SF9 cells coexpressing Galphai2, Gbeta1gamma2
# T2 sequence (Q9H3N8 whole entry): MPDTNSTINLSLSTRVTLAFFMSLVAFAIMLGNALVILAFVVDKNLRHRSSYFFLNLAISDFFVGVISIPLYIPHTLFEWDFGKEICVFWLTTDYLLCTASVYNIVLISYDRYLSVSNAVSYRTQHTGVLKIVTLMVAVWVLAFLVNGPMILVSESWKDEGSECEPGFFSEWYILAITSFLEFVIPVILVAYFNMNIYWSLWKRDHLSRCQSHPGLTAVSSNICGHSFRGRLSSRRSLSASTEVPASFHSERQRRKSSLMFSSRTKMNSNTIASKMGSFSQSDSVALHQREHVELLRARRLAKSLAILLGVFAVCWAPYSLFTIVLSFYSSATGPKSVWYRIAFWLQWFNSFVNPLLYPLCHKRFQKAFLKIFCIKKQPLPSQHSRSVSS
# Histamine H3 receptor [3] = biological target: T1, Histamine H3 receptor; experiment: Displacement of […]iodoproxyfan from human histamine H3 receptor expressed in HEK293 cells; assay type: cell-based
# Histamine H3 receptor [4] = biological target: Histamine H3 receptor (Rattus norvegicus, UniProt Q9QYN8); experiment: Displacement of [3H]histamine from histamine H3 receptor in rat cerebral cortex; assay type: tissue-based
# Histamine H3 receptor (Rattus norvegicus, UniProt Q9QYN8), sequence (Q9QYN8 whole entry): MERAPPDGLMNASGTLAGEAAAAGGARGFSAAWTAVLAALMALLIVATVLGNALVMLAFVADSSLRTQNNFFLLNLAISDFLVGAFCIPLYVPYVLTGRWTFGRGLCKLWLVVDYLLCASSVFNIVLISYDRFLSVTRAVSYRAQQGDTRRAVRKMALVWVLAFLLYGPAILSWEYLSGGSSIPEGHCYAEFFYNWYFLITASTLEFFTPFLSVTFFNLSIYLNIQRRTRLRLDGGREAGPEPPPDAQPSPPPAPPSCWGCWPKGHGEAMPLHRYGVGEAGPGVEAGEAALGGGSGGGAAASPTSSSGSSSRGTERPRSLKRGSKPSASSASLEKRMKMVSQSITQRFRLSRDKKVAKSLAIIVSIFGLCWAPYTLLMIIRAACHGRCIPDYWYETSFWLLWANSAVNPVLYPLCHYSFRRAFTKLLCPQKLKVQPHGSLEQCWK
# Histamine H4 receptor [5] = biological target: T2, Histamine H4 receptor; experiment: Displacement of [3H]histamine from human histamine H4 receptor expressed in HEK293 cells; assay type: cell-based
# T1 sequence (Q9Y5N1 whole entry): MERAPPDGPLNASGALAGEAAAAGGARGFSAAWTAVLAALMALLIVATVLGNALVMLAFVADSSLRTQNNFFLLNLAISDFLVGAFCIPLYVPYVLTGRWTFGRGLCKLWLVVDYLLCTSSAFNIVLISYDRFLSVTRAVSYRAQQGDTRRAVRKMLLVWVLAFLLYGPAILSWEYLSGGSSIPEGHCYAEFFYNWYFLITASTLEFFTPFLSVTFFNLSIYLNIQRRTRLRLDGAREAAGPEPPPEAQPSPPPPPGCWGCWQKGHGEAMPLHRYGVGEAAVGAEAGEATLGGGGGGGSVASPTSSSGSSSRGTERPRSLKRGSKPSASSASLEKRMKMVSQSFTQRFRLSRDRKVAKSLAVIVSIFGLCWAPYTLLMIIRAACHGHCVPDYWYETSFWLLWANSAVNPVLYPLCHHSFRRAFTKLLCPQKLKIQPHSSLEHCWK
Structure (SMILES),Ki (Histamine H3 receptor [1]) [nM],Ratio Ki (Homo sapiens),Ki (Histamine H4 receptor [2]) [nM],other results
CCC(C)CCNC(=O)OCCCc1c[nH]cn1 (racemic),13,9,123,
CC(C)CCC(C)NC(=O)OCCCc1cnc[nH]1 (racemic),30,,,
CCCCC(CC)CNC(=O)OCCCc1cnc[nH]1 (racemic),37,,779,
CC[C@@H](C)NC(=O)OCCCc1c[nH]cn1,12,24,290,
CCCCC(C)NC(=O)OCCCc1c[nH]cn1 (racemic),29,24,695,
CCCCC[C@@H](C)NC(=O)OCCCc1cnc[nH]1,41,,636,
CCCC(C)CNC(=O)OCCCc1c[nH]cn1 (racemic),8.3,20,162,
CCCCC[C@H](C)NC(=O)OCCCc1cnc[nH]1,74,,1460,
CCCCCCC(C)NC(=O)OCCCc1c[nH]cn1 (racemic),91,,,
CCC[C@@H](C)NC(=O)OCCCc1cnc[nH]1,15,,,
CCCCCC[C@H](C)NC(=O)OCCCc1c[nH]cn1,,,,Ki (Histamine H3 receptor [3]): 43 nM
CCCC[C@H](C)NC(=O)OCCCc1cnc[nH]1,42,,,
CCCCC[C@H](C)NC(=O)OCCCc1c[nH]cn1,,20,,
CC(C)CCCC(C)NC(=O)OCCCc1cnc[nH]1 (racemic),75,,,Ki (Histamine H3 receptor [4]): 22 nM
CCCC[C@@H](C)NC(=O)OCCCc1c[nH]cn1,,22,,
CC[C@H](C)CNC(=O)OCCCc1c[nH]cn1,4.7,25,118,
CCCC[C@@H](C)NC(=O)OCCCc1cnc[nH]1,19,,426,
CC[C@H](C)NC(=O)OCCCc1c[nH]cn1,31,,,
NC(=NCc1ccc(Cl)cc1)SCCCc1cnc[nH]1 [CLOBENPROPIT],,,,Ki (Histamine H4 receptor [5]): 4.3 nM
CCCC(C)NC(=O)OCCCc1c[nH]cn1 (racemic),21,,,
CCCCCC[C@@H](C)NC(=O)OCCCc1c[nH]cn1,,,,Ki (Histamine H3 receptor [3]): 28 nM
CCCCCC(C)NC(=O)OCCCc1c[nH]cn1 (racemic),52,,,
CCCCC[C@@H](C)NC(=O)OCCCc1c[nH]cn1,,16,,
CCCCC(CC)CNC(=O)OCCCc1c[nH]cn1 (racemic),,21,,
O=C(c1ccc(OCCCc2cnc[nH]2)cc1)C1CC1 [CIPROXIFAN],,,,Ki (Histamine H4 receptor [5]): 612 nM
CCC(C)NC(=O)OCCCc1c[nH]cn1 (racemic),49,,,

# Source: ChEMBL document CHEMBL1154378, “Histamine H3 and H4 receptor affinity of branched 3-(1H-imidazol-4-yl)propyl N-alkylcarbamates” (Bioorg Med Chem Lett, 2009)
